Source: patent publication US20260022142A1, “MACROCYCLIC IMMUNOMODULATORS” (Bristol-Myers Squibb Company, priority 2022, published 2026)
Bridge positions count the residues as written; N and C are the ends. Square brackets hold non-standard residues; d marks the D form. Peptide text beside a SMILES is read from it. * marks the point of attachment. Phe(4-CH2CH2COOH) = N[C@@H](Cc1ccc(CCC(=O)O)cc1)C(=O)O; Phe(4-COOH) = N[C@@H](Cc1ccc(C(=O)O)cc1)C(=O)O; Bip = N[C@@H](Cc1ccc(-c2ccccc2)cc1)C(=O)O; Phe(3-Me) = Cc1cccc(C[C@H](N)C(=O)O)c1; Val(3-F) = CC(C)(F)[C@H](N)C(=O)O; Cha = N[C@@H](CC1CCCCC1)C(=O)O; Cit = NC(=O)NCCC[C@H](N)C(=O)O; Carboxymethyl = O=C(O)C*; Orn = NCCC[C@H](N)C(=O)O; Aun = NCCCCCCCCCCC(=O)O; Dab = NCC[C@H](N)C(=O)O; Ac3c = NC1(C(=O)O)CC1; Piv = CC(C)(C)C(=O)*

Target: T1, PD-1/PD-L1 interaction (PE-labeled human PD-L1-Ig binding to Jurkat cell line over-expressing human PD-1) (Homo sapiens, UniProt Q15116)
T1 construct: expressed in transfected cells; host or cells: Jurkat
Experiment: Jurkat-PD-1 Cell Binding High-Content Screening Assay (CBA)
Type: cell-based
Conditions: Jurkat cell line over-expressing human PD-1; PE-labeled PD-L1-Ig 20 nM final; read-out: Jurkat hPD1-PDL1 IC50
Outline: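 Binding of fluorescent PD-L1-Ig (20 nM final) to Jurkat-PD-1 cells was measured by automated imaging after 1 h, following a 2 h compound pre-treatment at 37° C.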

T1 sequence (Q15116 25-288): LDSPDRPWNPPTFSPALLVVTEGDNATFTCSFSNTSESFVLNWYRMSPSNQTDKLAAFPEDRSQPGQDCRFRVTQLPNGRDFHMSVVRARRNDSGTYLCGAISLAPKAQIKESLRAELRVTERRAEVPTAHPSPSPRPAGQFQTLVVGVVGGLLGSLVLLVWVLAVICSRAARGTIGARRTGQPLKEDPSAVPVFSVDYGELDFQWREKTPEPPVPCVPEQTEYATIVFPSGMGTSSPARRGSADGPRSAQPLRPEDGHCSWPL

IC50 | SMILES
10.9 nM | Cc1cccc(C[C@@H]2NC(=O)[C@H](CC(=O)O)NC(=O)[C@H](Cc3ccc(OCC(=O)O)cc3)NC(=O)[C@H](CCCNC(=N)N)NC(=O)CSC[C@@H](C(=O)N[C@@H](CCN)C(=O)NCCCCCCCCCCC(=O)O)NC(=O)[C@H](CCC(N)=O)NC(=O)[C@H](C(C)C)NC(=O)[C@H](CC3CCCCC3)NC(=O)[C@H](CCN)NC(=O)[C@@H](CC(C)C)NC(=O)[C@H](CCCN)NC(=O)[C@H](Cc3ccc(OCC(=O)O)cc3)NC(=O)[C@H](Cc3ccc(-c4ccccc4)cc3)NC(=O)[C@H](C(C)(C)F)NC2=O)c1 [Compound 2122] ({CH2CO}-RY(Carboxymethyl)D[Phe(3-Me)][Val(3-F)][Bip]Y(Carboxymethyl)[Orn][dL][Dab][Cha]VQC[Dab][Aun]-OH; thioether N-14)
14.1 nM | Cc1cccc(C[C@@H]2NC(=O)[C@H](CC(=O)O)NC(=O)[C@H](Cc3ccc(OCC(=O)O)cc3)NC(=O)[C@H](CCCNC(=N)N)NC(=O)CSC[C@@H](C(=O)N[C@@H](CCN)C(=O)NCCCCCCCCCCC(=O)O)NC(=O)[C@H]([C@@H](C)O)NC(=O)[C@H](C(C)C)NC(=O)[C@H](CC3CCCCC3)NC(=O)[C@H](CCN)NC(=O)[C@@H](CC(C)C)NC(=O)[C@H](CCCN)NC(=O)[C@H](Cc3ccc(OCC(=O)O)cc3)NC(=O)[C@H](Cc3ccc(-c4ccccc4)cc3)NC(=O)[C@H](C(C)(C)F)NC2=O)c1 [Compound 2123] ({CH2CO}-RY(Carboxymethyl)D[Phe(3-Me)][Val(3-F)][Bip]Y(Carboxymethyl)[Orn][dL][Dab][Cha]VTC[Dab][Aun]-OH; thioether N-14)
17.3 nM | Cc1cccc(C[C@@H]2NC(=O)[C@H](CC(=O)O)NC(=O)[C@H](Cc3ccc(OCC(=O)O)cc3)NC(=O)[C@H](CCCNC(=N)N)NC(=O)CSC[C@@H](C(=O)N[C@@H](CCN)C(=O)NCCCCCCCCCCC(=O)O)NC(=O)[C@H]([C@@H](C)O)NC(=O)[C@H](C(C)C)NC(=O)[C@H](CC3CCCCC3)NC(=O)[C@H](CCN)NC(=O)[C@@H](CC(C)C)NC(=O)[C@H](CCCN)NC(=O)[C@H](CCCNC(N)=O)NC(=O)[C@H](Cc3ccc(-c4ccccc4)cc3)NC(=O)[C@H](C(C)(C)F)NC2=O)c1 [Compound 2124] ({CH2CO}-RY(Carboxymethyl)D[Phe(3-Me)][Val(3-F)][Bip][Cit][Orn][dL][Dab][Cha]VTC[Dab][Aun]-OH; thioether N-14)
16.4 nM | Cc1cccc(C[C@@H]2NC(=O)[C@H](CC(=O)O)NC(=O)[C@H](Cc3ccc(OCC(=O)O)cc3)NC(=O)[C@H](CCCNC(=N)N)NC(=O)CSC[C@@H](C(=O)N[C@@H](CCN)C(=O)NCCCCCCCCCCC(=O)O)NC(=O)[C@H]([C@@H](C)O)NC(=O)[C@H](C(C)C)NC(=O)[C@H](CC3CCCCC3)NC(=O)[C@H](CCN)NC(=O)[C@@H](CC(C)C)NC(=O)[C@H](CCCN)NC(=O)[C@H](Cc3ccc(O)cc3)NC(=O)[C@H](Cc3ccc(-c4ccccc4)cc3)NC(=O)[C@H](C(C)(C)F)NC2=O)c1 [Compound 2125] ({CH2CO}-RY(Carboxymethyl)D[Phe(3-Me)][Val(3-F)][Bip]Y[Orn][dL][Dab][Cha]VTC[Dab][Aun]-OH; thioether N-14)

Continued, molecule first:

SMILES | IC50
Cc1cccc(C[C@@H]2NC(=O)[C@H](CC(=O)O)NC(=O)[C@H](Cc3ccc(OCC(=O)O)cc3)NC(=O)[C@H](CCCNC(=N)N)NC(=O)CSC[C@@H](C(=O)N[C@@H](CCN)C(=O)NCCCCCCCCCCC(=O)O)NC(=O)[C@H](CO)NC(=O)[C@H](C(C)(C)F)NC(=O)[C@H](CC3CCCCC3)NC(=O)[C@H](CCN)NC(=O)[C@@H](CC(C)C)NC(=O)[C@H](CCCN)NC(=O)[C@H](Cc3ccc(OCC(=O)O)cc3)NC(=O)[C@H](Cc3ccc(-c4ccccc4)cc3)NC(=O)[C@H](Cc3ccc(O)cc3)NC2=O)c1 [Compound 2121] ({CH2CO}-RY(Carboxymethyl)D[Phe(3-Me)]Y[Bip]Y(Carboxymethyl)[Orn][dL][Dab][Cha][Val(3-F)]SC[Dab][Aun]-OH; thioether N-14) | 8.3 nM
Cc1cccc(C[C@@H]2NC(=O)[C@H](CC(=O)O)NC(=O)[C@H](Cc3ccc(OCC(=O)O)cc3)NC(=O)[C@H](CCCNC(=N)N)NC(=O)CSC[C@@H](C(=O)N[C@@H](CCN)C(=O)NCCCCCCCCCCC(=O)O)NC(=O)[C@H]([C@@H](C)O)NC(=O)[C@H](C(C)(C)F)NC(=O)[C@H](CC3CCCCC3)NC(=O)[C@H](CCN)NC(=O)[C@@H](CC(C)C)NC(=O)[C@H](CCCN)NC(=O)[C@H](Cc3ccc(O)cc3)NC(=O)[C@H](Cc3ccc(-c4ccccc4)cc3)NC(=O)[C@H](Cc3ccc(O)cc3)NC2=O)c1 [Compound 2126] ({CH2CO}-RY(Carboxymethyl)D[Phe(3-Me)]Y[Bip]Y[Orn][dL][Dab][Cha][Val(3-F)]TC[Dab][Aun]-OH; thioether N-14) | 35.7 nM
Cc1cccc(C[C@@H]2NC(=O)[C@H](CC(=O)O)NC(=O)[C@H](Cc3ccc(OCC(=O)O)cc3)NC(=O)[C@H](CCNC(=O)C(C)(C)C)NC(=O)CSC[C@@H](C(=O)N[C@@H](CCN)C(=O)NCCCCCCCCCCC(=O)O)NC(=O)[C@H]([C@@H](C)O)NC(=O)[C@H](C(C)C)NC(=O)[C@H](CC3CCCCC3)NC(=O)[C@H](CCN)NC(=O)[C@@H](CC(C)C)NC(=O)[C@H](CCCN)NC(=O)[C@H](Cc3ccc(OCC(=O)O)cc3)NC(=O)[C@H](Cc3ccc(-c4ccccc4)cc3)NC(=O)[C@H](Cc3ccc(C(=O)O)cc3)NC2=O)c1 [Compound 2127] ({CH2CO}-[Dab](Piv)Y(Carboxymethyl)D[Phe(3-Me)][Phe(4-COOH)][Bip]Y(Carboxymethyl)[Orn][dL][Dab][Cha]VTC[Dab][Aun]-OH; thioether N-14) | 28.4 nM
Cc1cccc(C[C@@H]2NC(=O)[C@H](CC(=O)O)NC(=O)[C@H](Cc3ccc(OCC(=O)O)cc3)NC(=O)[C@H](CCNC(=O)C(C)(C)C)NC(=O)CSC[C@@H](C(=O)N[C@@H](CCN)C(=O)NCCCCCCCCCCC(=O)O)NC(=O)[C@H](CCC(N)=O)NC(=O)[C@H](C(C)C)NC(=O)[C@H](CC3CCCCC3)NC(=O)[C@H](CCN)NC(=O)[C@@H](CC(C)C)NC(=O)[C@H](CCCN)NC(=O)[C@H](Cc3ccc(OCC(=O)O)cc3)NC(=O)[C@H](Cc3ccc(-c4ccccc4)cc3)NC(=O)[C@H](Cc3ccc(C(=O)O)cc3)NC2=O)c1 [Compound 2128] ({CH2CO}-[Dab](Piv)Y(Carboxymethyl)D[Phe(3-Me)][Phe(4-COOH)][Bip]Y(Carboxymethyl)[Orn][dL][Dab][Cha]VQC[Dab][Aun]-OH; thioether N-14) | 10.6 nM
Cc1cccc(C[C@@H]2NC(=O)[C@H](CC(=O)O)NC(=O)[C@H](Cc3ccc(OCC(=O)O)cc3)NC(=O)[C@H](CCCNC(=N)N)NC(=O)CSC[C@@H](C(=O)N[C@@H](CCN)C(=O)NCCCCCCCCCCC(=O)O)NC(=O)[C@H](CCC(N)=O)NC(=O)[C@H](C(C)C)NC(=O)[C@H](CC3CCCCC3)NC(=O)[C@H](CCN)NC(=O)[C@@H](CC(C)C)NC(=O)[C@H](CCCN)NC(=O)[C@H](Cc3ccc(OCC(=O)O)cc3)NC(=O)[C@H](Cc3ccc(-c4ccccc4)cc3)NC(=O)[C@H](Cc3ccc(CCC(=O)O)cc3)NC2=O)c1 [Compound 2129] ({CH2CO}-RY(Carboxymethyl)D[Phe(3-Me)][Phe(4-CH2CH2COOH)][Bip]Y(Carboxymethyl)[Orn][dL][Dab][Cha]VQC[Dab][Aun]-OH; thioether N-14) | 6 nM
Cc1cccc(C[C@@H]2NC(=O)[C@H](CC(=O)O)NC(=O)[C@H](Cc3ccc(OCC(=O)O)cc3)NC(=O)[C@H](CCCNC(=N)N)NC(=O)CSC[C@@H](C(=O)N[C@@H](CCN)C(=O)NCCCCCCCCCCC(=O)O)NC(=O)[C@H]([C@@H](C)O)NC(=O)[C@H](C(C)C)NC(=O)[C@H](CC3CCCCC3)NC(=O)[C@H](CCN)NC(=O)[C@@H](CC(C)C)NC(=O)[C@H](CCCN)NC(=O)[C@H](Cc3ccc(O)cc3)NC(=O)[C@H](Cc3ccc(-c4ccccc4)cc3)NC(=O)[C@H](Cc3ccc(OCC(=O)O)cc3)NC2=O)c1 [Compound 2130] ({CH2CO}-RY(Carboxymethyl)D[Phe(3-Me)]Y(Carboxymethyl)[Bip]Y[Orn][dL][Dab][Cha]VTC[Dab][Aun]-OH; thioether N-14) | 15.7 nM
Cc1cccc(C[C@@H]2NC(=O)[C@H](CC(=O)O)NC(=O)[C@H](Cc3ccc(OCC(=O)O)cc3)NC(=O)[C@H](CCCNC(=N)N)NC(=O)CSC[C@@H](C(=O)N[C@@H](CCN)C(=O)NCCCCCCCCCCC(=O)O)NC(=O)[C@H](CCC(N)=O)NC(=O)[C@H](C(C)C)NC(=O)[C@H](CC3CCCCC3)NC(=O)[C@H](CCN)NC(=O)[C@@H](CC(C)C)NC(=O)[C@H](CCCN)NC(=O)[C@H](Cc3ccc(O)cc3)NC(=O)[C@H](Cc3ccc(-c4ccccc4)cc3)NC(=O)[C@H](Cc3ccc(CCC(=O)O)cc3)NC2=O)c1 [Compound 2131] ({CH2CO}-RY(Carboxymethyl)D[Phe(3-Me)][Phe(4-CH2CH2COOH)][Bip]Y[Orn][dL][Dab][Cha]VQC[Dab][Aun]-OH; thioether N-14) | 5.8 nM
Cc1cccc(C[C@@H]2NC(=O)[C@H](CC(=O)O)NC(=O)[C@H](Cc3ccc(OCC(=O)O)cc3)NC(=O)[C@H](CCCNC(=N)N)NC(=O)CSC[C@@H](C(=O)NC3(C(=O)NCCCCCCCCCCC(=O)O)CC3)NC(=O)[C@H]([C@@H](C)O)NC(=O)[C@H](C(C)C)NC(=O)[C@H](CC3CCCCC3)NC(=O)[C@H](CCN)NC(=O)[C@@H](CC(C)C)NC(=O)[C@H](CCCN)NC(=O)[C@H](Cc3ccc(OCC(=O)O)cc3)NC(=O)[C@H](Cc3ccc(-c4ccccc4)cc3)NC(=O)[C@H](Cc3ccc(CCC(=O)O)cc3)NC2=O)c1 [Compound 2132] ({CH2CO}-RY(Carboxymethyl)D[Phe(3-Me)][Phe(4-CH2CH2COOH)][Bip]Y(Carboxymethyl)[Orn][dL][Dab][Cha]VTC[Ac3c][Aun]-OH; thioether N-14) | 11.5 nM
